Experimental data: article PMC3914206

Assays:
Assay type in all cases: binding
Parameters in all cases: KINOMEscan: ABL1(F317L)-phosphorylated / KINOMEscan: ABL1(H396P)-nonphosphorylated / KINOMEscan: ABL1(H396P)-phosphorylated / KINOMEscan: ABL1(M351T)-phosphorylated / KINOMEscan: ABL1(T315I)-phosphorylated / KINOMEscan: ABL1-nonphosphorylated / KINOMEscan: ABL1-phosphorylated / KINOMEscan: ACVR2A / KINOMEscan: ACVR2B / KINOMEscan: ADCK3 / KINOMEscan: ADCK4 / KINOMEscan: AKT1 / KINOMEscan: AKT3 / KINOMEscan: ALK / KINOMEscan: ARK5 / KINOMEscan: AURKA / KINOMEscan: AURKC / KINOMEscan: BIKE / KINOMEscan: BMPR1A / KINOMEscan: BMPR1B / KINOMEscan: BMX / KINOMEscan: BRK / KINOMEscan: BRSK1 / KINOMEscan: BRSK2 / KINOMEscan: CAMK1 / KINOMEscan: CAMK1D / KINOMEscan: CAMK1G / KINOMEscan: CAMK2A / KINOMEscan: CAMK2B / KINOMEscan: AAK1 / KINOMEscan: CAMK2D / KINOMEscan: CAMK2G / KINOMEscan: ABL1(F317I)-nonphosphorylated / KINOMEscan: ABL1(F317I)-phosphorylated / KINOMEscan: ABL1(F317L)-nonphosphorylated: unit: % Ctrl
Conditions in all cases: Compound Concentration 10 µM
panel of 442 kinases [1] = target: T1, panel of 442 kinases (Homo sapiens, UniProt Q13554)
T1 construct: purchased KINOMEscan
From the text: (§1) We assessed the selectivity of members of this scaffold using the KINOMEscan methodology across a near comprehensive panel of 442 kinases [[18,27]].

panel of 442 kinases [2] = target: T2, panel of 442 kinases (Homo sapiens, UniProt P08581, Y1235D)
T2 construct: purchased KINOMEscan
From the text: as §1

panel of 442 kinases [3] = target: T3, panel of 442 kinases (Homo sapiens, UniProt Q32MK0)
T3 construct: purchased KINOMEscan
T3 sequence (Q32MK0 1-819): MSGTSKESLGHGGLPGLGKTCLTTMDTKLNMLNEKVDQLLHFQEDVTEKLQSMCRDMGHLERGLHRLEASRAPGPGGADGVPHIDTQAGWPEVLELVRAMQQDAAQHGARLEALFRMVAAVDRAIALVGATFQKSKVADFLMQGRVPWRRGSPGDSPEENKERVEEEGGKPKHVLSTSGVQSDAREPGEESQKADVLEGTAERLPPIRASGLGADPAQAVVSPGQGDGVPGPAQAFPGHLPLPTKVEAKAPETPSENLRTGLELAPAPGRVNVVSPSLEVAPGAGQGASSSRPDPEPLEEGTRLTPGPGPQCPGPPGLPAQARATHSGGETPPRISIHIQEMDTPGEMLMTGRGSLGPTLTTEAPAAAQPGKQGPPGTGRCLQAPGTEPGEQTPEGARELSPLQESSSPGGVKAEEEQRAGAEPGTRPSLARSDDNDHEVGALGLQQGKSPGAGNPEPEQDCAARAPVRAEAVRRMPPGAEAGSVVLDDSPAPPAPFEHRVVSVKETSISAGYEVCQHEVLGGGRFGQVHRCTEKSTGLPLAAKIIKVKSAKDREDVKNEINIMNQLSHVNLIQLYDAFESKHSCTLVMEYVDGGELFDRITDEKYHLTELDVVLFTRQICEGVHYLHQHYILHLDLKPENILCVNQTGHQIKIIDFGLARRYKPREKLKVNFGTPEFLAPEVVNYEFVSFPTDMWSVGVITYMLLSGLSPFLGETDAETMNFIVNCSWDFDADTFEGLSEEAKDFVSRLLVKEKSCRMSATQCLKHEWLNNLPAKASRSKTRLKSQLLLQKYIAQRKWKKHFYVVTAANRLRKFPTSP
From the text: as §1

T1 sequence (Q13554 whole entry): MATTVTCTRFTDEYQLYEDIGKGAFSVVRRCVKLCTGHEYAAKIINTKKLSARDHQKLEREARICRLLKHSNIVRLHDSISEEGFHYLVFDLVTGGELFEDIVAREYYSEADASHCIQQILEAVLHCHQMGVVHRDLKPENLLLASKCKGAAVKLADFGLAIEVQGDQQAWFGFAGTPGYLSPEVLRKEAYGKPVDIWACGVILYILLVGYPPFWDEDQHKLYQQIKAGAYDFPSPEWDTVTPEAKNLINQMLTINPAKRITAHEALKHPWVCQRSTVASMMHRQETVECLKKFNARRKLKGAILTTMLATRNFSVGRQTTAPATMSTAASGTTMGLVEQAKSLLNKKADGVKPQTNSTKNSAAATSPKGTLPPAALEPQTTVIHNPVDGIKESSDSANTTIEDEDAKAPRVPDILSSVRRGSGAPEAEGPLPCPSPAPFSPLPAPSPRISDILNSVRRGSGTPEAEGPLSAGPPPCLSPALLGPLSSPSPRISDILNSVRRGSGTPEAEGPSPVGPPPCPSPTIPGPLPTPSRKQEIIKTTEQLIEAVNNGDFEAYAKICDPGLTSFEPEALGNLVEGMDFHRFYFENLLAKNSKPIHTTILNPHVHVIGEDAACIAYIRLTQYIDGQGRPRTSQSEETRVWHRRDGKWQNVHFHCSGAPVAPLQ
T2 sequence (P08581 25-1390 Y1235D): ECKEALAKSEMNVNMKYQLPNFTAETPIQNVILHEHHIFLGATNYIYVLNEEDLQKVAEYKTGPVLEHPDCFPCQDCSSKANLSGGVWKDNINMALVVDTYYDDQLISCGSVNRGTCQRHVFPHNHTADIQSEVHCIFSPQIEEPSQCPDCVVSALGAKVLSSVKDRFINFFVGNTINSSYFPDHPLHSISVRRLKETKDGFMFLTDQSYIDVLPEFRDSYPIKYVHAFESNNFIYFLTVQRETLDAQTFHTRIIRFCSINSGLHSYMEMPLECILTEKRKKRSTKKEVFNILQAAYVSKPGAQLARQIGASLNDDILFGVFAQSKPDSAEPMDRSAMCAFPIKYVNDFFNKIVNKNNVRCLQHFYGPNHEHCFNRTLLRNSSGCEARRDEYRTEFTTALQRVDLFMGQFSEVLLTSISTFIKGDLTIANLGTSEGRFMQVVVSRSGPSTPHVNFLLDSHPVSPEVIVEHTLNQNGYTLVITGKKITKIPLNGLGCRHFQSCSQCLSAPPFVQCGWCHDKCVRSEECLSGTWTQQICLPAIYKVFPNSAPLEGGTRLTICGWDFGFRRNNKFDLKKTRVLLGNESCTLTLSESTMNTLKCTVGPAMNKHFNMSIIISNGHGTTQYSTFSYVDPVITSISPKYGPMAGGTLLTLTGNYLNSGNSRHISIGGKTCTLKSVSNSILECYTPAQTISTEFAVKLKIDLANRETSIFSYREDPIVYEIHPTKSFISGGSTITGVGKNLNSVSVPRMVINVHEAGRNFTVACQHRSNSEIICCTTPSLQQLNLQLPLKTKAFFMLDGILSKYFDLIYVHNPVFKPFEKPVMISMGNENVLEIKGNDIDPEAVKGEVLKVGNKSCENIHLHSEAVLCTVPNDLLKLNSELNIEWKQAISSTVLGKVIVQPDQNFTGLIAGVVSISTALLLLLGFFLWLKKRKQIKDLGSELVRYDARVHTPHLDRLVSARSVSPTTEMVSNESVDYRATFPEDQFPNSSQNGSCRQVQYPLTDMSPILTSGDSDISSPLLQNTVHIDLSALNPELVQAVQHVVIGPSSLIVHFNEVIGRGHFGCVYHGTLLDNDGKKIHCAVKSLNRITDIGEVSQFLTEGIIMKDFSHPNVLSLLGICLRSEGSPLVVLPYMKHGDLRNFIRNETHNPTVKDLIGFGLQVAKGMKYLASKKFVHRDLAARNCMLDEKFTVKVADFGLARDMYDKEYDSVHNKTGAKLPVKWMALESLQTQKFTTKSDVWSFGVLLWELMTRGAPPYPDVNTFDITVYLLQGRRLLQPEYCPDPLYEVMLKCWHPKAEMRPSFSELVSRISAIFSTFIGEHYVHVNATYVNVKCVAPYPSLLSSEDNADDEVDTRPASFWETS

Structure (SMILES) | KINOMEscan: CAMK2B (panel of 442 kinases [1]) | KINOMEscan: MET(Y1235D) (panel of 442 kinases [2]) | KINOMEscan: MLCK (panel of 442 kinases [3])
COc1cc(C(=O)N2CCC(N3CCN(C)CC3)CC2)ccc1Nc1ncc2c(n1)N1CCc3cccc(c31)C(=O)N2C [Compound 24] | 62 | 74 | 
CCOc1cc(C(=O)N2CCC(N3CCN(C)CC3)CC2)ccc1Nc1ncc2c(n1)N(C1CCCC1)c1ccccc1C(=O)N2C [Compound 26] | 78 | 100 | 100
COc1cc(C(=O)N2CCC(N3CCN(C)CC3)CC2)ccc1Nc1ncc2c(n1)N(C1CCCC1)c1ccccc1C(=O)N2C [Compound 25, 11-cyclopentyl-2-((2-methoxy-4-(4-(4-methylpiperazin-1-yl)piperidine-1-carbonyl)phenyl)amino)-5-methyl-5H-benzo[e]pyrimido[5,4-b][1,4]diazepin-6(11H)-one] | 80 | 100 | 100
COc1cc(C(=O)N2CCC(N3CCN(C)CC3)CC2)ccc1Nc1ncc2c(n1)N(C)c1ccccc1C(=O)N2C [15 (LRRK2-IN-1)] | 62 | 100 | 100
